What was measured:
Cytochrome P450 2C19 = Cytochrome P450 2C19 (Homo sapiens, UniProt P33261); experiment: Drug metabolism assessed as CYP2C19 (unknown origin) expressed in microsomes-mediated metabolism by measuring metabolic rate at 1 uM incubated for 10 mins by UPLC analysis; type: ADME, Microsome
[1] = molecular target: Sodium-dependent serotonin transporter (Homo sapiens, UniProt P31645); experiment: Inhibition of human SERT expressed in CHO-K1 cells assessed as inhibition of [3H]-5-hydroxytryptamine reuptake measured after 20 mins by Microscintillation counting analysis; type: cell-based
MDR1 (ABCB1, P-gp) = MDR1 (ABCB1, P-gp) (Homo sapiens, UniProt P08183); experiment: Substrate activity at human MDR1 expressed in LLC-PK1 cells assessed as efflux ratio of permeability from basolateral to apical side over apical to basolateral side at 10 uM measured after 2 hrs by LC/MS/MS analysis; type: ADME, cell-based
[2] = molecular target: Sodium-dependent dopamine transporter (Homo sapiens, UniProt Q01959); experiment: Inhibition of human DAT expressed in CHO-K1 cells assessed as inhibition of [3H]-dopamine reuptake measured after 60 mins by Microscintillation counting analysis; type: cell-based
[3] = Drug metabolism assessed as CYP2B6/CYP2C9/CYP2E1/CYP2C8/CYP1A2 (unknown origin) expressed in microsomes-mediated metabolism by measuring metabolic rate at 1 uM incubated for 10 mins by UPLC analysis; type: ADME, Microsome; settings: human
[4] = molecular target: Sodium-dependent noradrenaline transporter (Homo sapiens, UniProt P23975); experiment: Inhibition of human NET expressed in CHO-K1 cells assessed as inhibition of [3H]-norepinephrine reuptake measured after 45 mins by Microscintillation counting analysis; type: cell-based
CYP2D6 = CYP2D6 (Homo sapiens, UniProt P10635); experiment: Inhibition of CYP2D6 (unknown origin) expressed in insect cells assessed as reduction in 1'-hydroxybufuralol formation using bufuralol as substrate at 10 uM incubated for 60 mins by LC/MS/MS analysis; type: ADME; settings: recombinant CYP2D6 expressed in insect cells, probe bufuralol
Cytochrome P450 2D6 [5] = molecular target: T1, Cytochrome P450 2D6 (Homo sapiens, UniProt P10635); experiment: Drug metabolism assessed as CYP2D6 (unknown origin) expressed in microsomes-mediated metabolism by measuring metabolic rate at 1 uM incubated for 10 mins by UPLC analysis; type: ADME, Microsome
Cytochrome P450 3A4 = Cytochrome P450 3A4 (Homo sapiens, UniProt P08684); experiment: Drug metabolism assessed as CYP3A4 (unknown origin) expressed in microsomes-mediated metabolism by measuring metabolic rate at 1 uM incubated for 10 mins by UPLC analysis; type: ADME, Microsome
Cytochrome P450 2D6 [6] = molecular target: T1, Cytochrome P450 2D6; experiment: Drug metabolism in human hepatocytes assessed as CYP2D6-mediated N-(((6S,7R)-7-(4-chloro-3-fluorophenyl)-1,4-oxazepan-6-yl)methyl)-2-hydroxyacetamide formation at 10 uM incubated for 6 hrs by LC/MS/MS anlaysis; type: ADME, cell-based, Hepatocyte
[7] = Oral bioavailability in Crl:CD(SD)(IGS) rat at 1 mg/kg measured after 8 hrs by LC/MS/MS analysis; type: ADME, organism-based; settings: in vivo
[8] = Ex vivo receptor occupancy at NET in Sprague-Dawley rat left brain cortex assessed as [3H]nisoxetine labelling at 3 mg/kg, iv measured after 20 mins by scintillation counting analysis; type: functional
hERG (KCNH2) = hERG (KCNH2) (Homo sapiens, UniProt Q12809); experiment: Inhibition of human ERG at 10 uM
[9] = Permeability coefficient of the compound at 10 uM at pH 7.4 measured after 3 hrs by PAMPA based LC/MS/MS analysis; type: ADME; parameters: unit not given here; settings: pH 7.4, 3 h
Rattus norvegicus = experiment: Anti-SUI activity in po dosed rat assessed as induction of urethral resistance by measuring increase in leak point pressure measured after 15 to 240 mins; type: functional, organism-based; settings: dose 1-10 mg/kg, time 15-240 min, tested as the 2H-labelled form
Cytochrome P450 2D6 [10] = molecular target: T1, Cytochrome P450 2D6; experiment: Drug metabolism assessed as CYP2D6 (unknown origin)-expressed in microsomes mediated N-(((6S,7R)-7-(4-chloro-3-fluorophenyl)-1,4-oxazepan-6-yl)methyl)-2-hydroxyacetamide formation at 1 uM incubated for 10 mins by UPLC anlaysis; type: ADME, Microsome

MDR1 (ABCB1, P-gp), sequence (P08183 whole entry): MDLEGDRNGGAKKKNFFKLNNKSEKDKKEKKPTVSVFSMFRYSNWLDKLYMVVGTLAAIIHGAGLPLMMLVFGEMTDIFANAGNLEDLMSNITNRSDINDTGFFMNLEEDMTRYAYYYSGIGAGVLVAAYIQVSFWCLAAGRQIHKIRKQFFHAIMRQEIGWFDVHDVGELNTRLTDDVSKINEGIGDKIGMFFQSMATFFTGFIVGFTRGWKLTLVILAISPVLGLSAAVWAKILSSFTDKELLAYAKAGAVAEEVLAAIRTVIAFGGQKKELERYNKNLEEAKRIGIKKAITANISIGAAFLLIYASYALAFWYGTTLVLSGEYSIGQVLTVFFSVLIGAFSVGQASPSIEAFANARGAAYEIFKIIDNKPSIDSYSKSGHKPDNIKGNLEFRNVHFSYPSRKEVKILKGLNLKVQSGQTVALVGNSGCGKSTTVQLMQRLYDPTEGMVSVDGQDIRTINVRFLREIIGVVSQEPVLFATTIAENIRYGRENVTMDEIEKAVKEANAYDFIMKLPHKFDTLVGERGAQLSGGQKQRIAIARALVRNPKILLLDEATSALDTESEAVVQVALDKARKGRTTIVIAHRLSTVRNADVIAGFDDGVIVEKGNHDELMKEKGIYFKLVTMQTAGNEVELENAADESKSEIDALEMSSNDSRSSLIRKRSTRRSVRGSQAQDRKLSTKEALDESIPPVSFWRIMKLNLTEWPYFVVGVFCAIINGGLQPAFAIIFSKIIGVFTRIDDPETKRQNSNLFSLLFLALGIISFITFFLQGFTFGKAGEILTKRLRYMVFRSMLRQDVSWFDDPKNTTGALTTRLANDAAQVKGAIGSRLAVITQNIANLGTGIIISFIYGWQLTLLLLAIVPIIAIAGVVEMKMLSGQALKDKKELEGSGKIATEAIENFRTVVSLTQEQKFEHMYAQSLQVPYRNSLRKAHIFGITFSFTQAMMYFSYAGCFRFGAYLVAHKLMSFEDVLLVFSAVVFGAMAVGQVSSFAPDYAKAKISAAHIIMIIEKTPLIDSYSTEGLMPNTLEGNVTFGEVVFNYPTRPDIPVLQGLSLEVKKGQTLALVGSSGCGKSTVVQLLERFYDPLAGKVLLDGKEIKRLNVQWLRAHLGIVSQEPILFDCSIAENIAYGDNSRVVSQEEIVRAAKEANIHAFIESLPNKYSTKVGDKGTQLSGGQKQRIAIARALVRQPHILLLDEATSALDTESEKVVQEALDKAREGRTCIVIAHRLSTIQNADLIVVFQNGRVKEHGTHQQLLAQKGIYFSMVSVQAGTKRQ
Sodium-dependent noradrenaline transporter, sequence (P23975 whole entry): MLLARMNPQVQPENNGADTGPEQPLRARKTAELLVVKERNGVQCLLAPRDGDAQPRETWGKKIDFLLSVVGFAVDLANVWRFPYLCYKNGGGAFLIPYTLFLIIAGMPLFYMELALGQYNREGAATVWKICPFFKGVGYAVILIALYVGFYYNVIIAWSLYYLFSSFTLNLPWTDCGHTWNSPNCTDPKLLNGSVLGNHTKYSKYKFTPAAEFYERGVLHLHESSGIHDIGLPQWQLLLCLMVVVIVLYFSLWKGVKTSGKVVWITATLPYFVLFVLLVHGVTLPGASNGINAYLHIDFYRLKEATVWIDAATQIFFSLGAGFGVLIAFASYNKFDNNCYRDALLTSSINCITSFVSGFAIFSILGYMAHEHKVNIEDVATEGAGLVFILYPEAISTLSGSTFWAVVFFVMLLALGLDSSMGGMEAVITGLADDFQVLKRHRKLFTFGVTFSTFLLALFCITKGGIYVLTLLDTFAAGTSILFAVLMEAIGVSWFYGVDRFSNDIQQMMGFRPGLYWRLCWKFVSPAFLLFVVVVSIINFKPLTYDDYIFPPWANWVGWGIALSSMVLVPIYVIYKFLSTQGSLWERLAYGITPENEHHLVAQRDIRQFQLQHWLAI
Sodium-dependent serotonin transporter, sequence (P31645 whole entry): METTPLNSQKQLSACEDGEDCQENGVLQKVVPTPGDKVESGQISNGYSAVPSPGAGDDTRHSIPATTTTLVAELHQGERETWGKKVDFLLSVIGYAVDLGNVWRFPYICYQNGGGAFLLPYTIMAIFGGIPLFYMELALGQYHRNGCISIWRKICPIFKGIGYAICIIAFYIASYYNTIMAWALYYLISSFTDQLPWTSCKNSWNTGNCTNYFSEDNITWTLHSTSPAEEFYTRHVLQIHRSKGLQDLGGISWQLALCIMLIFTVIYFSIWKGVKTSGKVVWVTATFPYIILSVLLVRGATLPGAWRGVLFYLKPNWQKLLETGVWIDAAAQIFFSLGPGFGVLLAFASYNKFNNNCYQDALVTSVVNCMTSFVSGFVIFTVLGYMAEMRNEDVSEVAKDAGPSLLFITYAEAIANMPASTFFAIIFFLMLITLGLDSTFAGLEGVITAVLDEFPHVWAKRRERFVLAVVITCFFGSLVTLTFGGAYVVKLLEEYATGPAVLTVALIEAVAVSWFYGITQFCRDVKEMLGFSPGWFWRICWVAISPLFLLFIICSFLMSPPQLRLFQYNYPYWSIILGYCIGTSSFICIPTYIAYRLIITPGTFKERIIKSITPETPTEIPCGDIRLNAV
Cytochrome P450 3A4, sequence (P08684 whole entry): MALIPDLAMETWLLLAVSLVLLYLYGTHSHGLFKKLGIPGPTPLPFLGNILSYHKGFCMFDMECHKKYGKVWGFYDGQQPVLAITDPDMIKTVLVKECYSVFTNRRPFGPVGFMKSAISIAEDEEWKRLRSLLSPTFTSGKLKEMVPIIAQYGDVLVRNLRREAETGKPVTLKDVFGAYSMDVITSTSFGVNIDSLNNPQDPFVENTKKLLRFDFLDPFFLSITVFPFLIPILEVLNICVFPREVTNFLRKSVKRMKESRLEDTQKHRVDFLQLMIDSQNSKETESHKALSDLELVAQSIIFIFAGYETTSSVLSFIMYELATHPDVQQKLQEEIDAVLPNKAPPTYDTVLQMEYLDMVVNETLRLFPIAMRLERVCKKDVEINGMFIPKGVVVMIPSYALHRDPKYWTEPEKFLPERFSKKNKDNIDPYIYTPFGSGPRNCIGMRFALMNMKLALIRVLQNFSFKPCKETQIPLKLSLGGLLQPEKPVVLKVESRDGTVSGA
Cytochrome P450 2C19, sequence (P33261 whole entry): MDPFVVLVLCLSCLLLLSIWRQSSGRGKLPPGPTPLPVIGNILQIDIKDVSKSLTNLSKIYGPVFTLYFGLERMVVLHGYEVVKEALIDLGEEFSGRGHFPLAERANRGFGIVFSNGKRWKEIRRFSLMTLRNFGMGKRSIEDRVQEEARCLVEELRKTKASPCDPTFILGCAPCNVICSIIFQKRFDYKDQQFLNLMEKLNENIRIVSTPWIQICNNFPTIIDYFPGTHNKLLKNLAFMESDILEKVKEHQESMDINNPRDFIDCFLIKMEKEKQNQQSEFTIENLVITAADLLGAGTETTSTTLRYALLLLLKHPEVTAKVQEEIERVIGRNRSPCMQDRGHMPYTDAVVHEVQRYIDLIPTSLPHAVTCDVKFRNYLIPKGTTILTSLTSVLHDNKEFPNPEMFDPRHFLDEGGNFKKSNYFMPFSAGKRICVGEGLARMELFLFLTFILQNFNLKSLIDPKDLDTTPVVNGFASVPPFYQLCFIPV
CYP2D6, sequence (P10635 whole entry): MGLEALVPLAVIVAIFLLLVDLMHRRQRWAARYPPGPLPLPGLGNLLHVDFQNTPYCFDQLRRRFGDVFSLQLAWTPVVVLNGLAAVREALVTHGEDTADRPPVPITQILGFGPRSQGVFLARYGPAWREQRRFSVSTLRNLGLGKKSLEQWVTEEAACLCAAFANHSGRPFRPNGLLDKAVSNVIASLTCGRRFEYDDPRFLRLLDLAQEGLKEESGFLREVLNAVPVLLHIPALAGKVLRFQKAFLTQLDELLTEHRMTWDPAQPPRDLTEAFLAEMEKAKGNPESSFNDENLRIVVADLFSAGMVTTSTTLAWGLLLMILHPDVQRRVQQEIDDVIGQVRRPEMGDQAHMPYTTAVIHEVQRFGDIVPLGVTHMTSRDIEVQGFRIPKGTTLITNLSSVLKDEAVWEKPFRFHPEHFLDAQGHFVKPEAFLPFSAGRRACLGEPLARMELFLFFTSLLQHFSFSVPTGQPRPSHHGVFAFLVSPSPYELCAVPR
T1 sequence (P10635 whole entry): as above
Sodium-dependent dopamine transporter, sequence (Q01959 whole entry): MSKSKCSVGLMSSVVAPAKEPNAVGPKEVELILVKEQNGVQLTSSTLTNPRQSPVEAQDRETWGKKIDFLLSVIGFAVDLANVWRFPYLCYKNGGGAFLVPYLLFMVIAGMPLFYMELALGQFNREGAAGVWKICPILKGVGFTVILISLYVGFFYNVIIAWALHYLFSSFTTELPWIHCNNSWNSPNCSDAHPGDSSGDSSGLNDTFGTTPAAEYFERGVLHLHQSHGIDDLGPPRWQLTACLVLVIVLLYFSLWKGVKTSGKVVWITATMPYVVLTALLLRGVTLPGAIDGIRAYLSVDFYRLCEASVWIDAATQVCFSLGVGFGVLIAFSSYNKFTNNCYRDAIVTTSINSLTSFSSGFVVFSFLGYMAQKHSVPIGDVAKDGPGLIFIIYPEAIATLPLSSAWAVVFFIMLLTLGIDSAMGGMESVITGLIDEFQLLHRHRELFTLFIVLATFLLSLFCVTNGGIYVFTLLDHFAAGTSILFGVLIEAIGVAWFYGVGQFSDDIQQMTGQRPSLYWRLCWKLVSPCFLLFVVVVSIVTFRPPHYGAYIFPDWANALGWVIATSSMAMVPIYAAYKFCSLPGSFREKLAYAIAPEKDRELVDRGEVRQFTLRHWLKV

Drug metabolism (Cytochrome P450 2C19) [%/min/pmol]	IC50 [1] [nM]	efflux ratio at 2 h, 10 µM (MDR1 (ABCB1, P-gp))	IC50 [2] [nM]	Drug metabolism [3] [%/min/pmol]	IC50 [4] [nM]	inhibition at 1 h, 10 µM (CYP2D6) [%]	Drug metabolism (Cytochrome P450 2D6 [5]) [%/min/pmol]	Drug metabolism (Cytochrome P450 3A4) [%/min/pmol]	Drug metabolism (Cytochrome P450 2D6 [6])	bioavailability [7] [%]	Pe [9]	Drug metabolism (Cytochrome P450 2D6 [10])	SMILES	Occ [8] [%]	inhibition at 10 µM (hERG (KCNH2)) [%]	Activity (Rattus norvegicus)
0.005	220	1.4	> 1000	0	3.3	79	0.365	0.026					CCOCC(=O)NC[C@@H]1CNCCO[C@H]1c1ccc(Cl)c(F)c1.Cl			
0.017	390	1.7	> 1000	0	4.8	66	0.37	0.064					CC(C)OCC(=O)NC[C@@H]1CNCCO[C@H]1c1ccc(Cl)c(F)c1.Cl			
0.012	680	2.1	> 1000	0.008	3.3	49	0.035	0.015	Metabolite_Detected	68			Cl.[2H]C([2H])([2H])OCC(=O)NC[C@@H]1CNCCO[C@H]1c1ccc(Cl)c(F)c1	3.8	17	
	70	2.1	1600		1.2	70					279		COCC(=O)NC[C@@H]1CNCCO[C@H]1c1ccc(Cl)c(Cl)c1.Cl			
		5	> 1000			26					146		CC(=O)NC[C@@H]1CNCCO[C@H]1c1ccc(Cl)c(Cl)c1.Cl			
	520	2.4	> 1000		21	42							COC(C)(C)C(=O)NC[C@@H]1CNCCO[C@H]1c1ccc(Cl)c(F)c1.Cl			
	200	3.5	> 1000		5.3	80							Cl.O=C(NC[C@@H]1CNCCO[C@H]1c1ccc(Cl)c(F)c1)C1CCCO1 (some centres not stated)			
0.016	440	2.1	> 1000	0	3.2	48	0.081	0	Metabolite_Detected		221	Metabolite_Detected	COCC(=O)NC[C@@H]1CNCCO[C@H]1c1ccc(Cl)c(F)c1.Cl			Dose-dependent effect
	540	3.6	> 1000		2.6	66							Cl.O=C(NC[C@@H]1CNCCO[C@H]1c1ccc(Cl)c(F)c1)C1COCCO1 (some centres not stated)			
	890	12	> 1000		3.9	44					151		COCCC(=O)NC[C@@H]1CNCCO[C@H]1c1ccc(Cl)c(F)c1.Cl			
	62	3	> 1000		2.6	62					260		CCCC(=O)NC[C@@H]1CNCCO[C@H]1c1ccc(Cl)c(Cl)c1.Cl			
	120	4.8	> 1000		1.5	41					207		CCC(=O)NC[C@@H]1CNCCO[C@H]1c1ccc(Cl)c(Cl)c1.Cl			
	800	1.9	> 1000		8.8	33							COC(C)C(=O)NC[C@@H]1CNCCO[C@H]1c1ccc(Cl)c(F)c1.Cl (some centres not stated)			

Source: ChEMBL document CHEMBL4715727, “Design, synthesis, and biological evaluation of a novel series of peripheral-selective noradrenaline reuptake inhibitors-Part 2” (Bioorg Med Chem, 2016)
